Test results published in US11866405B2, “Substituted indazoles as IRAK4 inhibitors” (AstraZeneca AB, priority 2020, dated 2024).

How the values were obtained:
[1] = biological target: IRAK4 auto-phosphorylation (Homo sapiens (Human), UniProt Q9NWZ3); assay: IRAK4 phosphorylation cell assay in IL-1β-stimulated Karpas-299 cells; format: cell-based; settings: IL-1β 22.7 ng/mL, pIRAK4 (Thr345/Ser346), geometric mean of at least 2 experiments
Procedure, shortened: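 Karpas-299 cells were preincubated 1 h at 37 °C with compound (10-point half-log series, top 30 μM), then stimulated 10 min with 22.7 ng/mL IL-1β. Cells were fixed and stained for pIRAK4 (Thr345/Ser346), and per-cell fluorescence was quantified by high-content imaging. IC50 values are geometric means of at least 2 experiments.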

[2] = biological target: human recombinant IRAK4 protein (Homo sapiens (Human), UniProt Q9NWZ3); assay: IRAK4 enzyme assay (mass spectrometry readout); format: biochemical; settings: 3 mM ATP, 0.2 nM enzyme; geometric mean of at least n=2, * single experiment
Sequence of human recombinant IRAK4 protein (Q9NWZ3 whole entry): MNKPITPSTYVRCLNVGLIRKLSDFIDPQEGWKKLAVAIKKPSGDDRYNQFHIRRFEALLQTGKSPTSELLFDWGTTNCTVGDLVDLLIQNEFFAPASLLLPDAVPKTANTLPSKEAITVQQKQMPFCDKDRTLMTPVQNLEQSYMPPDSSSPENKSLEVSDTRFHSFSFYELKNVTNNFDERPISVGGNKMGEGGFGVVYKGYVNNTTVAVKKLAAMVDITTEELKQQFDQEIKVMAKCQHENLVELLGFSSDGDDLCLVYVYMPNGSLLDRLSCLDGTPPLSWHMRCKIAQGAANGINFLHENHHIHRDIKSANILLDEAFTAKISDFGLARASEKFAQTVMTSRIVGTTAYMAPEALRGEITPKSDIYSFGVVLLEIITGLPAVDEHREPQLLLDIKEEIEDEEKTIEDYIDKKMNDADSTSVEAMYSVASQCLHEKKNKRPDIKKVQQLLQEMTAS
Procedure, shortened: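 0.2 nM IRAK4 preincubated 15 min at room temperature with compound (10-point half-log series, top 1 μM or 10 μM) in pH 7.4 Tris buffer with 3 mM ATP; 10 μM peptide substrate added, 2 h at room temperature, formic acid stop. Phospho/unphospho peptide ratio by LC-MS/MS; potency from curve fit, geometric mean of n≥2 or single run.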

[3] = tested on: IL-1β stimulated IL-8 release in hTHP1 cells; assay: IL-1β-induced IL-8 release in human THP-1 monocyte cell line; format: cell-based; settings: THP-1 cells, IL-1β 1.8 ng/mL, 18 h; geometric mean of at least n=2, * n = 1; read-out: hTHP1, IL1β stim, IL8 release red. IC50
Method: Effect of IRAK4 Inhibitors on IL-1β-Induced Cytokine Release in Human THP-1 Monocyte Cell Line
THP-1 cells were cultured in RPMI 1640 (Gibco 72400-021) containing 10% FBS (Gibco 10270-106), 1 mM Na-pyruvate (Gibco 11360-070) and 100 U/mL Penicillin-Streptomycin (Gibco 15140-122). Cells were plated at 5×10^4 cells per well in 384 well Echo certified plates (Labcyte PPT-0200) to which compounds had been added at various concentrations (10 point half log dose response with a final top concentration of 10 μM) using an Echo 655 (Labcyte Inc). The plate was incubated for 1 h at 37° C., then recombinant […] (R&D Systems 201-LB-025/CF) was added to a final concentration of 1.8 ng/mL. The plates were incubated at 37° C. for 18h. The plates were centrifuged at 250×g for four minutes, then 1.6 μL of the cell supernatant was transferred to a white low volume 384 well plate (Greiner #784075) using acoustic dispensing on an Echo 655. Next, 200 nL of acceptor bead (5 mg/mL) and biotinylated anti-IL-8 antibody (500 nM) was added using acoustic dispensing (beads and antibody were from a PerkinElmer 18 Alpha LISA detection kit, AL224C). The plate was sealed, briefly centrifuged, then incubated at room temperature for 1 h. Afterwards, 200 nL of donor bead solution (5 mg/mL) was added, the plate sealed and briefly centrifuged, then incubated for 1 h before being read on an Envision plate reader to allow determination the concentration of IRAK4 inhibitor required to effect a 50% reduction in the amount of IL-8 released following IL-1β stimulation in THP1 cells (Table 2). The quantified data were analysed in Genedata Screener 15 (Genedata AG). Data presented are the geometric mean of at least n=2, or as denoted by an * are obtained from a single experiment.

Sequence of IRAK4 auto-phosphorylation (Q9NWZ3 whole entry): as above

IC50 [1] | IC50 [2] | IC50 [3] | Compound
26 nM | 1.6 nM | 25 nM | 2-((1r,4r)-4-(cyclopropanecarboxamido)cyclohexyl)-6-methoxy-N-(pyrazolo[1,5-a]pyrimidin-3-yl)-2H-indazole-5-carboxamide [Example 26]
67 nM | 4.4 nM | – | COc1cc2nn([C@H]3CC[C@@H](NC(=O)C4CC4)CC3)cc2cc1C(=O)Nc1cnn2cnccc12 [Example 27, 2-((1s,4s)-4-(Cyclopropanecarboxamido)cyclohexyl)-6-methoxy-N-(pyrazolo[1,5-c]pyrimidin-3-yl)-2H-indazole-5-carboxamide]
79 nM | 1.2 nM | – | O=C(Nc1cnn2cccnc12)c1cc2cn([C@H]3CC[C@@H](O)CC3)nc2cc1OC1CC1 [Example 56]
16 nM | 0.9 nM | – | COc1cc2nn([C@H]3CC[C@H](N(C)C(=O)[C@@H](C)O)CC3)cc2cc1C(=O)Nc1cnn2cccnc12 [Example 58]
40 nM | 1.3 nM | – | COc1cc2nn([C@H]3CC[C@H](N(C)C(=O)[C@H](C)O)CC3)cc2cc1C(=O)Nc1cnn2cccnc12 [Example 59, 2-((1S,4r)-4-((S)-2-Hydroxy-N-methylpropanamido)cyclohexyl)-6-methoxy-N-(pyrazolo[1,5-a]pyrimidin-3-yl)-2H-indazole-5-carboxamide]
40 nM | 0.4 nM | – | O=C(Nc1cnc2cccnn12)c1cc2cn([C@H]3CC[C@H](O)CC3)nc2cc1OC1CC1 [Example 84, 6-Cyclopropoxy-2-((1r,4r)-4-hydroxycyclohexyl)-N-(imidazo[1,2-b]pyridazin-3-yl)-2H-indazole-5-carboxamide]
50 nM | 0.8 nM | – | O=C(Nc1cnc2cccnn12)c1cc2cn([C@H]3CC[C@@H](O)CC3)nc2cc1OC1CC1 [Example 85, 6-Cyclopropoxy-2-((1s,4s)-4-hydroxycyclohexyl)-N-(imidazo[1,2-b]pyridazin-3-yl)-2H-indazole-5-carboxamide]
26 nM | 0.2 nM | – | COc1cc2nn([C@H]3CC[C@@]4(CC3)CC(=O)N(C)C4)cc2cc1C(=O)Nc1cnn2cccnc12 [Example 87, 6-methoxy-2-((5s,8s)-2-methyl-3-oxo-2-azaspiro[4.5]decan-8-yl)-N-(pyrazolo[1,5-a]pyrimidin-3-yl)-2H-indazole-5-carboxamide]
44 nM | 1.3 nM | – | COc1cc2nn([C@@H]3CC[C@H](O)C[C@H]3C)cc2cc1C(=O)Nc1cnc2cccnn12 [Example 88, 2-((1R,2R,4S)-4-hydroxy-2-methylcyclohexyl)-N-(imidazo[1,2-b]pyridazin-3-yl)-6-methoxy-2H-indazole-5-carboxamide]
101 nM | 5.2 nM | – | COc1cc2nn([C@H]3CC[C@@H](O)C[C@@H]3C)cc2cc1C(=O)Nc1cnc2cccnn12 [Example 90, 2-((1S,2S,4R)-4-hydroxy-2-methylcyclohexyl)-N-(imidazo[1,2-b]pyridazin-3-yl)-6-methoxy-2H-indazole-5-carboxamide]
19 nM | 0.7 nM | – | COc1cc2nn([C@H]3CC[C@H](n4ccnn4)CC3)cc2cc1C(=O)Nc1cnc2cccnn12 [Example 102, 2-((1r,4r)-4-(1H-1,2,3-triazol-1-yl)cyclohexyl)-N-(imidazo[1,2-b]pyridazin-3-yl)-6-methoxy-2H-indazole-5-carboxamide]
17 nM | 0.6 nM | – | COc1cc2nn([C@H]3CC[C@H](n4nccn4)CC3)cc2cc1C(=O)Nc1cnc2cccnn12 [Example 103, 2-((1r,4r)-4-(2H-1,2,3-triazol-2-yl)cyclohexyl)-N-(imidazo[1,2-b]pyridazin-3-yl)-6-methoxy-2H-indazole-5-carboxamide]
16 nM | 0.9 nM | – | COc1cc2nn([C@H]3CC[C@H](N(C)C(=O)C[C@H](C)O)CC3)cc2cc1C(=O)Nc1cnn2cccnc12 [Example 110, 2-((1S,4r)-4-((S)-3-Hydroxy-N-methylbutanamido)cyclohexyl)-6-methoxy-N-(pyrazolo[1,5-a]pyrimidin-3-yl)-2H-indazole-5-carboxamide]
27 nM | 0.9 nM | – | COc1cc2nn([C@H]3CC[C@H](N(C)C(=O)C[C@@H](C)O)CC3)cc2cc1C(=O)Nc1cnn2cccnc12 [Example 111, 2-((1R,4r)-4-((R)-3-Hydroxy-N-methylbutanamido)cyclohexyl)-6-methoxy-N-(pyrazolo[1,5-a]pyrimidin-3-yl)-2H-indazole-5-carboxamide]
13 nM | 0.3 nM | – | COc1cc2nn([C@H]3CC[C@H](N(C)C(=O)N4CC[C@H](O)C4)CC3)cc2cc1C(=O)Nc1cnc2cccnn12 [Example 116, 2-((1S,4r)-4-((S)-3-Hydroxy-N-methylpyrrolidine-1-carboxamido)cyclohexyl)-N-(imidazo[1,2-b]pyridazin-3-yl)-6-methoxy-2H-indazole-5-carboxamide]
22 nM | 0.3 nM | – | COc1cc2nn([C@H]3CC[C@H](N(C)C(=O)N4CC[C@@H](O)C4)CC3)cc2cc1C(=O)Nc1cnc2cccnn12 [Example 117, 2-((1R,4r)-4-((R)-3-Hydroxy-N-methylpyrrolidine-1-carboxamido)cyclohexyl)-N-(imidazo[1,2-b]pyridazin-3-yl)-6-methoxy-2H-indazole-5-carboxamide]

Compound | IC50 [1] | IC50 [2] | IC50 [3]
COc1cc2nn([C@H]3CC[C@H](N(C)C(=O)[C@@H](C)O)CC3)cc2cc1C(=O)Nc1cnc2cccnn12 [Example 95, 2-((1R,4r)-4-((R)-2-Hydroxy-N-methylpropanamido)cyclohexyl)-N-(imidazo[1,2-b]pyridazin-3-yl)-6-methoxy-2H-indazole-5-carboxamide] | 7 nM | 0.2 nM | –
COc1cc2nn([C@H]3CC[C@H](N(C)C(=O)C4CC4)CC3)cc2cc1C(=O)Nc1cnn2cnccc12 [Example 96, 6-Methoxy-2-((1r,4r)-4-(N-methylcyclopropanecarboxamido)cyclohexyl)-N-(pyrazolo[1,5-c]pyrimidin-3-yl)-2H-indazole-5-carboxamide] | 15 nM | 0.5 nM | –
COc1cc2nn(C3CCC(N(C)C(=O)[C@H]4C[C@H](O)C4)CC3)cc2cc1C(=O)Nc1cnn2cccnc12 (stereo partly drawn) [Example 97, 2-((1R,4r)-4-((1r,3R)-3-hydroxy-N-methylcyclobutane-1-carboxamido)cyclohexyl)-6-methoxy-N-(pyrazolo[1,5-a]pyrimidin-3-yl)-2H-indazole-5-carboxamide] | 15 nM | 0.7 nM | –
COc1cc2nn(C3CCC(N(C)C(=O)C4CC(O)C4)CC3)cc2cc1C(=O)Nc1cnn2cnccc12 [Example 98, 2-((1R,4r)-4-((1s,3S)-3-hydroxy-N-methylcyclobutane-1-carboxamido)cyclohexyl)-6-methoxy-N-(pyrazolo[1,5-c]pyrimidin-3-yl)-2H-indazole-5-carboxamide] | 20 nM | 0.6 nM | –
COc1cc2nn([C@H]3CC[C@H](N(C)C(=O)C(C)(C)O)CC3)cc2cc1C(=O)Nc1cnn2cnccc12 [Example 99, 2-((1r,4r)-4-(2-Hydroxy-N,2-dimethylpropanamido)cyclohexyl)-6-methoxy-N-(pyrazolo[1,5-c]pyrimidin-3-yl)-2H-indazole-5-carboxamide] | 35 nM | 1.2 nM | –
CO[C@H]1C[C@H](Oc2cc3nn(C4CCC5(CC4)CN(C(C)=O)C5)cc3cc2C(=O)Nc2cnc3cccnn23)C1 [Example 100, 2-(2-Acetyl-2-azaspiro[3.5]nonan-7-yl)-N-(imidazo[1,2-b]pyridazin-3-yl)-6-((1r,3r)-3-methoxycyclobutoxy)-2H-indazole-5-carboxamide] | 6 nM | < 0.03 nM | –
CO[C@H]1C[C@@H](Oc2cc3nn(C4CCC5(CC4)CN(C(C)=O)C5)cc3cc2C(=O)Nc2cnc3cccnn23)C1 [Example 101, 2-(2-Acetyl-2-azaspiro[3.5]nonan-7-yl)-N-(imidazo[1,2-b]pyridazin-3-yl)-6-((1s,3s)-3-methoxycyclobutoxy)-2H-indazole-5-carboxamide] | 31 nM | < 0.4 nM | –
